Measurements as given in PMC11125453, “A Novel 2-Methoxyestradiol Derivative: Disrupting Mitosis Inhibiting Cell Motility and Inducing Apoptosis in HeLa Cells In Vitro” (Pharmaceutics, 2024).

Assays:
ERα = target: T1, ERα (Homo sapiens, UniProt P03372); assay: Estrogenic activity luciferase reporter assay in T47D-ERE-Luc^Neo; format: cell-based; settings: 24 h incubation, read-out: EC50, oestrogenic activity (transcriptional activity of oestrogen-responsive luciferase reporter)
T1 construct: T47D-ERE-Luc^Neo, an ERα-positive cell line, stably transfected with a luciferase reporter cassette; endogenous in cells; host or cells: T47D-ERE-Luc^Neo
T1 sequence (P03372 1-595): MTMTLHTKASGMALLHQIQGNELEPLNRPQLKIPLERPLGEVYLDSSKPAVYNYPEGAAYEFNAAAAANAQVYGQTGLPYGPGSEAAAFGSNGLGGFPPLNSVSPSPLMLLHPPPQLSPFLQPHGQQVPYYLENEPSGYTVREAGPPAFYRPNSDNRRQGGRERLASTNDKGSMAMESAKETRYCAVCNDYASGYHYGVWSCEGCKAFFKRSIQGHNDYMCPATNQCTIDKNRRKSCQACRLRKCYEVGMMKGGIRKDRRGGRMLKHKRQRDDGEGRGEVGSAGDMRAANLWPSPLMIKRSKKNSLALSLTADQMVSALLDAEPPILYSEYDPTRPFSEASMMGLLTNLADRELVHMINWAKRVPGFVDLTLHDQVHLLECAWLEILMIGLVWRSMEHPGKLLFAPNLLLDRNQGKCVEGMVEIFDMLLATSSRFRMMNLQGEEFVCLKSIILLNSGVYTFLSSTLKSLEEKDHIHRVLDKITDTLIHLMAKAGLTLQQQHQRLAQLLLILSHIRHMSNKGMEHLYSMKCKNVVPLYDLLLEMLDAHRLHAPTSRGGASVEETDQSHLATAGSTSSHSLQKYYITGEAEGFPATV
Experimental: The in vitro oestrogenic activity of our test compound was determined by utilizing the T47D-ERE-Luc^Neo, an ERα-positive cell line, stably transfected with a luciferase reporter cassette. On the first day of the experiment, cells were seeded onto 96-well microplates in a density of 50,000 cells/well. After 72 h of incubation, the medium was changed to phenol red-free RPMI, containing 10% charcoal-stripped FBS. This step was repeated for another four consecutive days to deplete the intracellular oestrogen content. […]. After 24 h of incubation, the supernatant was removed from the wells and the One-Glo™ firefly luciferase reagent was added according to the manufacturer’s instructions (Promega Corp., Madison, WI, USA). Following a 5 min incubation period, the luciferase enzyme activity was measured using a luminometer (FLUOstar OPTIMA, BMG Labtech GmbH, Ortenberg, Germany). Each concentration was assayed in triplicates, repeated twice. Relative luminescence units (RLU) were normalised to percentage values, and sigmoidal concentration–response curves were fitted to the data points using GraphPad Prism 9.5.1 (GraphPad Software, San Diego, CA, USA).

NIH/3T3 cells [1] = assay: Growth inhibition on non-cancerous mouse fibroblast cells, previous study; format: cell-based; settings: ratio of IC50 values of NIH/3T3 and HeLa
T47D cells = assay: MTT assay, growth inhibition of T47D, 72 h; format: cell-based; settings: Homo sapiens, 72 h incubation
Experimental: The extent of the inhibition of cell proliferation by the test compound was determined using the MTT (3-(4,5-dimethylthiazol-2-yl)-2,5-diphenyltetrazolium bromide) assay. Exponentially growing HeLa cells were seeded into 96-well plates at a density of 1.0 × 10^4 cells per well in 100 µL of media and incubated for 24 h to facilitate cell attachment. Subsequently, the cells were treated with test compounds formulated in 100 µL of media at six different concentrations of compounds ranging, from 0.1 to 30 µmol. The control group received only media treatment. After 24 h of incubation, 22 µL of MTT solution (5 mg/mL in PBS; Duchefa Biochemie BV, Haarlem, The Netherlands) was added and incubated for 4 h at 37 °C in a humidified 5% CO2 environment. […] Absorbance measurements were taken at 545 nm using a microplate UV-VIS reader (SPECTRO star Nano, BMG Labtech GmbH, Offenburg, Germany), followed by the calculation of the percentage cell viability using the GraphPad Prism 5.01 (GraphPad Software, San Diego, CA, USA). […]
The MTT assay was conducted as described in Section 2.5, with the incubation time extended to 72 h. IC50 values were determined by fitting sigmoidal concentration–response curves using GraphPad Prism 9.5.1 (GraphPad Software, San Diego, CA, USA). […]

MCF7 cells = assay: MTT assay, growth inhibition of MCF7, 72 h; format: cell-based; settings: Homo sapiens, 72 h incubation
HeLa cells [2] = assay: Wound-healing assay; format: cell-based, human; settings: 5.0 µM
Experimental: Due to the significant contribution of cell motility to tumour metastasis, we performed a wound-healing assay, utilizing a 2D model, to explore the antimigratory potential of compound 4a on HeLa cells. Special silicon inserts (Ibidi GmbH, Gräfelfing, Germany) were utilised, with 50,000 cells per well implanted on 12-well plates in a standard EMEM medium supplemented with 10% FBS. Following overnight incubation, the inserts were carefully removed, and the confluent monolayers were washed with PBS. Cells were then treated with sub-antiproliferative concentrations (1.0, 2.5 and 5.0 µM) of compound 4a in the EMEM medium containing 2% FBS. Images were then captured at 0, 24, and 48 h post-treatment using a Nikon Eclipse TS100 fluorescence microscope (Nikon Instruments Europe, Amstelveen, The Netherlands). Untreated cells served as the control, and the rate of wound closure (the decrease in size of the gaps devoid of cells) was measured using ImageJ software v1.54 (National Institutes of Health, Bethesda, MD, USA).

HeLa cells [3] = assay: Boyden chamber invasion assay; format: cell-based, human; settings: 5.0 µM, 24 h
Experimental: Compound 4a’s capacity to inhibit tumour invasion was assessed using the Boyden chamber assay, a three-dimensional model, on a profoundly invasive HPV-18 positive cell line. The polyethylene terephthalate (PET) membrane (8 μm pore size) and the thin layer of the matrigel basement matrix in special Boyden chamber inserts (BioCoat™ Matrigel® Invasion Chambers, Corning Inc., Corning, NY, USA) were prehydrated (2 h, serum-free EMEM) and placed onto a 24-well plate. The cell suspension (50,000 cells/insert in 500 μL) prepared in the serum-free EMEM with sub-antiproliferative concentrations (1.0, 2.5, and 5.0 μM) of 4a was nested in the upper compartments. Untreated cells were used as controls, with the EMEM medium supplemented with 10% FBS, and served as a chemoattractant in the lower chambers. After 24 h of incubation, supernatants and non-invading cells were removed cautiously with a cotton swab. […] Subsequently, 4 images per chamber were taken with a Nikon Eclipse TS100 fluorescence microscope (Nikon Instruments Europe, Amstelveen, The Netherlands), and the number of invading cells were enumerated using ImageJ software (National Institutes of Health, Bethesda, MD, USA). The invasion rate was determined by comparing the number of invaded cells in the treated samples with the number of invaded cells in the untreated control samples.

tubulin = assay: Cell-free tubulin polymerisation assay; format: biochemical
Experimental: To assess the impact of test compound 4a on the microtubular system, a cell-free tubulin polymerisation assay was conducted using a commercially available kit (Cytoskeleton Inc., Denver, CO, USA), largely in accordance with manufacturer’s instructions, though with some modifications. The assay was performed in a pre-heated 96-well plate, with each condition tested in two parallel wells. Two wells were assigned as the experimental control and received 10 µL of general tubulin buffer (GTB), while the next two wells were assigned as the positive control and received a similar volume of 10 µM paclitaxel. Various concentrations of the test compound (50, 150, 300, and 600 µM) were added in similar volumes, and the polymerisation reaction was initiated by adding 100 µL of tubulin to each well. Absorbance readings were measured every minute for 60 min at 340 nm, following a kinetic measurement protocol. A similar experiment was repeated with the absence of glycerol in the reaction mixture and in exclusion of 50, 150 µM of our test compound. […] The maximum rate of tubulin polymerisation (Vmax) was determined as the highest difference between a set of three absorbance values at any two consecutive intervals.

HeLa cells [4] = assay: Cell cycle analysis using flow cytometry; format: cell-based, human; settings: 18 h incubation; 1.25, 2.5, 5.0 and 10 µM
Experimental: Cell cycle analysis was performed to elucidate a possible mechanism of action of the compound 4a. Cells were seeded in a 12-well plate at a density of 120,000 cells per well and incubated overnight. […] The supernatant from each treatment was collected separately, and the cells were washed with PBS and detached using trypsin. The resulting supernatant containing the cells was centrifuged at 1300 rpm for 5 min. The cells were then washed with PBS and fixed with 70% ice-cold ethanol at −20 °C for 20 min. To stain the DNA content, the cells were treated with 300 µL of staining solution, which consisted of 10 µg/mL PI, 0.1% sodium citrate, 0.1% triton-X, and 10 µg/mL RNase-A, all dissolved in injectable water. The staining process was carried out in the dark for 30 min. The cells were subjected to analysis using a flow cytometer (CytoFLEX-V0-B4-RO, Beckman Coulter, Brea, CA, USA) with a minimum of 10,000 events per sample being evaluated during each analysis. The data obtained were processed using ModFit LT 3.3.11 software (Verity Software House, Topsham, ME, USA). Untreated cells were utilised as the control group. Apoptotic cells were identified as the hypodiploid (subG1) cell population. The cell cycle analysis experiments were conducted twice, with three parallel samples for each condition.

HeLa cells [5] = assay: MTT assay for cell viability, 24 h; format: cell-based, human; settings: concentrations corresponding the IC50 of 4a
Experimental: The extent of the inhibition of cell proliferation by the test compound was determined using the MTT (3-(4,5-dimethylthiazol-2-yl)-2,5-diphenyltetrazolium bromide) assay. Exponentially growing HeLa cells were seeded into 96-well plates at a density of 1.0 × 10^4 cells per well in 100 µL of media and incubated for 24 h to facilitate cell attachment. Subsequently, the cells were treated with test compounds formulated in 100 µL of media at six different concentrations of compounds ranging, from 0.1 to 30 µmol. The control group received only media treatment. After 24 h of incubation, 22 µL of MTT solution (5 mg/mL in PBS; Duchefa Biochemie BV, Haarlem, The Netherlands) was added and incubated for 4 h at 37 °C in a humidified 5% CO2 environment. The medium was subsequently aspirated, and 100 µL of DMSO was added to dissolve the formazan crystals produced by the intact cell’s mitochondrial enzymes. The mixture was then mechanically shaken for 30 min. Absorbance measurements were taken at 545 nm using a microplate UV-VIS reader (SPECTRO star Nano, BMG Labtech GmbH, Offenburg, Germany), followed by the calculation of the percentage cell viability using the GraphPad Prism 5.01 (GraphPad Software, San Diego, CA, USA). All in vitro experiments were performed twice with five replicates. Stock solutions of the tested substances (10 mM) were prepared in DMSO.

HeLa cells [6] = assay: Hoechst 33258-propidium iodide fluorescent double staining; format: cell-based, human; settings: 1.0, 2.5, 5.0 and 10 μM, 48 h
Experimental: Fluorescence staining was conducted to observe the morphological changes induced by the apoptotic process in cells treated with the compound 4a. HeLa cell suspension was seeded into 6-well plates at a density of 150,000 cells per well and allowed to repose for 24 h before exposure to different concentrations of our test substance (1.0, 2.5, 5.0, and 10 μM) for 48 h. To distinguish apoptotic and necrotic cell populations, the cells were stained with lipophilic Hoechst 33258 (1 μg/mL, HO) and hydrophilic propidium iodide (3 μg/mL, PI) for 90 min at 37 °C in a CO2 incubator. Following the removal of the remaining dye-containing medium, a Nikon Eclipse TS100 fluorescence microscope (Nikon Instruments Europe, Amstelveen, The Netherlands) was used to capture at least 4 images per condition. The microscope was equipped with suitable optical blocks for Hoechst 33258 (excitation: 360/40 nm bandpass filter, emission: 460/50 nm bandpass filter, and 400 nm dichromatic mirror) and propidium iodide (excitation: 500/20 nm bandpass filter, emission: 520 nm long pass filter, and 515 nm dichromatic mirror). This technique enables differentiation between early apoptosis and secondary necrosis by examining the nuclear morphology and membrane integrity of cells. The HO dye solution readily permeates into the nuclei of all cells, resulting in a uniform blue staining in the nuclei of the viable cells. […]

HeLa cells [7] = tested on: HeLa cells; design: method as in PMID 35091086; settings: HeLa cell line; cited from earlier work
NIH/3T3 cells [8] = tested on: NIH/3T3 cells; design: method as in PMID 35091086; settings: read-out: IC50 on non-cancerous mouse fibroblast (NIH/3T3) cells; cited from earlier work

COc1cc2c(cc1O)CC[C@@H]1[C@@H]2CC[C@]2(C)[C@@H](O)CC[C@@H]12 [Compound 2ME, 2-methoxyestradiol]
EC50 (ERα): 0.0111 µM

CN(C)Cc1cc2c(cc1O)CC[C@@H]1[C@@H]2CC[C@]2(C)[C@@H](O)CC[C@@H]12 [Compound 4a, 2-[(dimethylamino)methyl]-oestradiol]
selectivity index (SI) (NIH/3T3 cells [1]): 15.6
IC50 (T47D cells): 16.9 µM
IC50 (MCF7 cells): 19.2 µM
EC50 (ERα): 0.653 µM
reduction in the migratory capacity of HeLa cells relative to the control (HeLa cells [2]; 24 h of treatment): 53.9%
reduction in the migratory capacity of HeLa cells relative to the control (HeLa cells [2]; 48 h of treatment): 39.6%
decrease in number of invading cells (anti-invasive activity) vs control (HeLa cells [3]): more than 95%
concentration of maximum tubulin polymerisation effect (tubulin; absence of glycerol): approximately 300 µM
effect on tubulin polymerisation relative to the control (tubulin; all tested concentrations (50, 150, 300, 600 µM), presence or absence of glycerol): significant increase in tubulin polymerisation
effect on G2/M phase population (HeLa cells [4]): significant cell arrest at the G2/M phase
effect on hypodiploid sub-G1 population (HeLa cells [4]): significant rise in the hypodiploid sub-G1 population
cell viability change after 24 h incubation (HeLa cells [5]): no significant alteration in cell viability
nuclei emitting intense blue fluorescence (DNA condensation, early apoptosis) (HeLa cells [6]): concentration-dependent escalation
IC50 (HeLa cells [7]): 4.53 µM
IC50 (NIH/3T3 cells [8]): 70.4 µM
